Values after ≈ are worked out from the molar mass of the structure shown.
Legend:
Format in all cases: functional
Porphyromonas gingivalis [1] = assay: Bactericidal activity against Porphyromonas gingivalis ATCC 33277 assessed as reduction in bacterial growth incubated for 48 hrs by INT dye based broth dilution method
Streptococcus sobrinus [2] = assay: Bactericidal activity against Streptococcus sobrinus 6715 assessed as reduction in bacterial growth incubated for 48 hrs by INT dye based broth dilution method
Streptococcus sobrinus [3] = assay: Antibacterial activity against Streptococcus sobrinus 6715 assessed as reduction in bacterial growth incubated for 24 hrs by INT dye based broth dilution method
Porphyromonas gingivalis [4] = assay: Antibacterial activity against Porphyromonas gingivalis ATCC 33277 assessed as reduction in bacterial growth incubated for 24 hrs by INT dye based broth dilution method

Row | Compound | MIC (Streptococcus sobrinus [3]) [µM] | MIC (Porphyromonas gingivalis [4]) [µM] | MBC (Porphyromonas gingivalis [1]) [µM] | MBC (Streptococcus sobrinus [2]) [µM]
1 | C/C(=C\CC/C(C)=C/CC[C@]1(C)CCc2cc(Oc3c(O)cc(C)c4c3CC[C@@](C)(CC/C=C(\C)CC/C=C(\C)CC/C=C(\C)C(=O)O)O4)cc(C)c2O1)CC/C=C(\C)C(=O)O | > 1000 | > 1000 | > 1000 | > 1000
2 | O=C1c2c(O)cc(O)cc2O[C@H](c2ccc(O)cc2)[C@H]1c1c(O)cc(O)c2c1O[C@H](c1ccc(O)cc1)[C@@H](O)C2=O | 250 (≈ 140 µg/mL) | > 1000 | > 1000 | 1000 (≈ 558 µg/mL)
3 | C/C(=C\CC/C(C)=C/CC[C@]1(C)CCc2cc(O)cc(C)c2O1)CC/C=C(\C)C(=O)O | 31.3 (≈ 13.4 µg/mL) | 31.3 (≈ 13.4 µg/mL) | 250 (≈ 107 µg/mL) | 62.5 (≈ 26.7 µg/mL)
4 | O=C1C[C@@H](c2ccc(O)cc2)Oc2c1c(O)cc(O)c2[C@H]1C(=O)c2c(O)cc(O)cc2O[C@@H]1c1ccc(O)cc1 | 250 (≈ 136 µg/mL) | 250 (≈ 136 µg/mL) | > 1000 | 500 (≈ 271 µg/mL)
5 | O=C1c2c(O)cc(O)cc2O[C@H](c2ccc(O)cc2)[C@H]1c1c(O)cc(O)c2c1O[C@H](c1ccc(O)c(O)c1)[C@@H](O)C2=O | 250 (≈ 144 µg/mL) | > 1000 | > 1000 | 1000 (≈ 574 µg/mL)
6 | C/C(=C\CC/C(C)=C/CC[C@]1(C)CCc2cc(Oc3c(O)c(C)c(C)c4c3CC[C@@](C)(CC/C=C(\C)CC/C=C(\C)CC/C=C(\C)C(=O)O)O4)cc(C)c2O1)CC/C=C(\C)C(=O)O | > 1000 | > 1000 | > 1000 | > 1000
7 | N=C(NCCCCCCNC(=N)NC(=N)Nc1ccc(Cl)cc1)NC(=N)Nc1ccc(Cl)cc1 [CHLORHEXIDINE] | 2 (≈ 1.01 µg/mL) | 15.6 (≈ 7.89 µg/mL) | 31.3 (≈ 15.8 µg/mL) | 2 (≈ 1.01 µg/mL)

Continued, in another order:

Row | MIC (Streptococcus sobrinus [3]) [µM] | MIC (Porphyromonas gingivalis [4]) [µM] | Compound | MBC (Porphyromonas gingivalis [1]) [µM] | MBC (Streptococcus sobrinus [2]) [µM]
8 | 15.6 (≈ 5.47 µg/mL) | 62.5 (≈ 21.9 µg/mL) | CC(C)=CCC/C(C)=C/Cc1c(O)cc(C(=O)c2ccccc2)cc1O | > 1000 | 31.3 (≈ 11 µg/mL)
9 | > 1000 | > 1000 | C/C(=C\CC/C(C)=C/CC[C@]1(C)CCc2c(c(C)cc(O)c2-c2c(O)cc(C)c3c2CC[C@@](C)(CC/C=C(\C)CC/C=C(\C)CC/C=C(\C)C(=O)O)O3)O1)CC/C=C(\C)C(=O)O | > 1000 | > 1000
10 | > 1000 | > 1000 | CC1(C)CC[C@]2(C)CC[C@]3(C)[C@H]4CC=C5[C@@H](CC[C@H](O)C5(C)C)[C@]4(C)CC[C@@]3(C)[C@@H]2C1 [GLUTINOL] | > 1000 | > 1000
11 | 500 (≈ 286 µg/mL) | 125 (≈ 71.6 µg/mL) | COc1ccc([C@@H]2CC(=O)c3c(O)cc(O)c([C@H]4C(=O)c5c(O)cc(O)cc5O[C@@H]4c4ccc(O)cc4)c3O2)cc1O | > 1000 | > 1000
12 | 250 (≈ 147 µg/mL) | > 1000 | COc1ccc([C@H]2Oc3c(c(O)cc(O)c3[C@H]3C(=O)c4c(O)cc(O)cc4O[C@@H]3c3ccc(O)cc3)C(=O)[C@@H]2O)cc1O | > 1000 | > 1000

Reference: ChEMBL document CHEMBL4699448, “Garcinoic Acids and a Benzophenone Derivative from the Seeds of Garcinia kola and Their Antibacterial Activities against Oral Bacterial Pathogenic Organisms” (2020)
